In brackets after ≈: the same amount, converted by molar mass. Blank lines part the entries; values can stand above or below the compound they belong to.
What was measured:
Test in all cases: In vitro antibacterial evaluation: minimum inhibitory concentration (MIC), broth dilution method
Type in all cases: cell-based
Details in all cases: 18 hours at 35° C.
Enterococcus sp. = system: Enterococcus sp.
How it was run: (§1)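 Inoculum: 5×10^5 CFU/mL. Range: 64-0.06 μg/mL. Medium: Muller-Hinton II […]; NCCLS M7-A2 broth dilution. Endpoint: lowest concentration inhibiting growth. Strains include methicillin-, penicillin- and/or vancomycin-resistant clinical isolates.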

Escherichia coli = system: Escherichia coli
How it was run: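 Test strains, among them recent clinical isolates carrying methicillin, penicillin and/or vancomycin resistance, were inoculated at 5×10^5 CFU/mL. A broth dilution series spanning 64-0.06 μg/mL in Muller-Hinton II […] (NCCLS M7-A2) defined the MIC as the lowest growth-inhibiting concentration.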

Staphylococcus sp. = system: Staphylococcus sp.
How it was run: as §1

Streptococcus sp. = system: Streptococcus sp.
How it was run: as §1

[1] = Enterococcus faecalis (GC 2242)
[2] = Enterococcus faecalis (GC 2691)
[3] = Enterococcus faecalis (GC 3059)
[4] = broth dilution, inoculum 5×10^5 CFU/mL
[5] = Streptococcus agalactiae (GC 4564)
[6] = Streptococcus pneumoniae (ATCC 6301)
[7] = Streptococcus pneumoniae (GC 1894)
[8] = Streptococcus pneumoniae (GC 4565)
[9] = Streptococcus pyogenes (GC 4563)

MIC Enterococcus avium (GC 4558) (Enterococcus sp.): 16 µg/mL (≈ 11.3 µM)
MIC Enterococcus faecalis (ATCC 29212) (Enterococcus sp.): 16 µg/mL (≈ 11.3 µM)
MIC Enterococcus faecalis (GC 2242) (Enterococcus sp.; [1]): 16 µg/mL (≈ 11.3 µM)
MIC Enterococcus faecalis (GC 2691) (Enterococcus sp.; [2]): 16 µg/mL (≈ 11.3 µM)
MIC Enterococcus faecalis (GC 3059) (Enterococcus sp.; [3]): 16 µg/mL (≈ 11.3 µM)
MIC Enterococcus faecalis (GC 4552) (Enterococcus sp.): 16 µg/mL (≈ 11.3 µM)
MIC Enterococcus faecalis (GC 4553) (Enterococcus sp.): 16 µg/mL (≈ 11.3 µM)
MIC Enterococcus faecalis (GC 4554) (Enterococcus sp.): 16 µg/mL (≈ 11.3 µM)
MIC Enterococcus faecalis (GC 6189) (Enterococcus sp.): 16 µg/mL (≈ 11.3 µM)
MIC Enterococcus faecium (GC 2243) (Enterococcus sp.): 16 µg/mL (≈ 11.3 µM)
MIC Enterococcus faecium (GC 4556) (Enterococcus sp.): 16 µg/mL (≈ 11.3 µM)
MIC Enterococcus faecium (GC 4557) (Enterococcus sp.): 8 µg/mL (≈ 5.67 µM)
MIC Enterococcus faecalis (GC 2242) (Enterococcus sp.; [4]): 16 µg/mL (≈ 11.3 µM)
MIC Enterococcus faecalis (GC 2691) (Enterococcus sp.; [4]): 16 µg/mL (≈ 11.3 µM)
MIC Enterococcus faecalis (GC 3059) (Enterococcus sp.; [4]): 16 µg/mL (≈ 11.3 µM)
MIC Escherichia coli (ATCC 25922) (Escherichia coli): >64 µg/mL
MIC Escherichia coli (GC 4559) (Escherichia coli): >64 µg/mL
MIC Escherichia coli (GC 4560) (Escherichia coli): 2 µg/mL (≈ 1.42 µM)
MIC Coagulase Negative Staphylococcus (GC 4547) (Staphylococcus sp.): 8 µg/mL (≈ 5.67 µM)
MIC Coagulase Negative Staphylococcus (GC 4548) (Staphylococcus sp.): 4 µg/mL (≈ 2.83 µM)
MIC Coagulase Negative Staphylococcus (GC 4549) (Staphylococcus sp.): 4 µg/mL (≈ 2.83 µM)
MIC Coagulase Negative Staphylococcus (GC 4551) (Staphylococcus sp.): 16 µg/mL (≈ 11.3 µM)
MIC Coagulase Negative Staphylococcus (GC 6257) (Staphylococcus sp.): 2 µg/mL (≈ 1.42 µM)
MIC Staphylococcus aureus (ATCC 29213) (Staphylococcus sp.): 8 µg/mL (≈ 5.67 µM)
MIC Staphylococcus aureus (GC 1131) (Staphylococcus sp.): 8 µg/mL (≈ 5.67 µM)
MIC Staphylococcus aureus (GC 3051) (Staphylococcus sp.): 8 µg/mL (≈ 5.67 µM)
MIC Staphylococcus aureus (GC 3053) (Staphylococcus sp.): 8 µg/mL (≈ 5.67 µM)
MIC Staphylococcus aureus (GC 4541) (Staphylococcus sp.): 4 µg/mL (≈ 2.83 µM)
MIC Staphylococcus aureus (GC 4542) (Staphylococcus sp.): 4 µg/mL (≈ 2.83 µM)
MIC Staphylococcus aureus (GC 4544) (Staphylococcus sp.): 8 µg/mL (≈ 5.67 µM)
MIC Staphylococcus aureus (GC 4545) (Staphylococcus sp.): 4 µg/mL (≈ 2.83 µM)
MIC Staphylococcus aureus-SMITH (GC 4543) (Staphylococcus sp.): 8 µg/mL (≈ 5.67 µM)
MIC Streptococcus agalactiae (GC 4564) (Streptococcus sp.; [5]): 2 µg/mL (≈ 1.42 µM)
MIC Streptococcus pneumoniae (ATCC 6301) (Streptococcus sp.; [6]): 1 µg/mL (≈ 0.708 µM)
MIC Streptococcus pneumoniae (GC 1894) (Streptococcus sp.; [7]): 0.5 µg/mL (≈ 0.354 µM)
MIC Streptococcus pneumoniae (GC 4565) (Streptococcus sp.; [8]): 0.5 µg/mL (≈ 0.354 µM)
MIC Streptococcus pyogenes (GC 4563) (Streptococcus sp.; [9]): 2 µg/mL (≈ 1.42 µM)
MIC Streptococcus agalactiae (GC 4564) (Streptococcus sp.; [4]): 2 µg/mL (≈ 1.42 µM)
MIC Streptococcus pneumoniae (ATCC 6301) (Streptococcus sp.; [4]): 1 µg/mL (≈ 0.708 µM)
MIC Streptococcus pneumoniae (GC 1894) (Streptococcus sp.; [4]): 0.5 µg/mL (≈ 0.354 µM)
MIC Streptococcus pneumoniae (GC 4565) (Streptococcus sp.; [4]): 0.5 µg/mL (≈ 0.354 µM)
MIC Streptococcus pyogenes (GC 4563) (Streptococcus sp.; [4]): 2 µg/mL (≈ 1.42 µM)
SMILES: CC(c1ccccc1)C1NC(=O)CNC(=O)C(CO)NC(=O)C(C(O)C2CNC(=N)N2C2OC(CO)C(O)C(O)C2O)NC(=O)C(C(O)C2CNC(=N)N2)NC(=O)C(Cc2ccc(OC3OC(CO)C(OC4OC(COCC=Cc5ccccc5)C(O)C(O)C4O)C(O)C3O)cc2)NC1=O (stereo not drawn) [Example 242, Cyclo[glycyl-β-methylphenylalanyl-O-[4-O-[6-O-(3-phenylprop-2-en-1-yl)hexopyranosyl]-hexopyranosyl]tyrosyl-3-(2-iminoimidazolidin-4-yl)seryl-3-(3-hexopyranosyl-2-iminoimidazolidin-4-yl)serylseryl]]
MIC Staphylococcus haemolyticus (GC 4546) (Staphylococcus sp.): 4 µg/mL (≈ 2.83 µM)

MIC Enterococcus avium (GC 4558) (Enterococcus sp.): 32 µg/mL (≈ 22 µM)
MIC Enterococcus faecalis (ATCC 29212) (Enterococcus sp.): >64 µg/mL
MIC Enterococcus faecalis (GC 2242) (Enterococcus sp.; [1]): 64 µg/mL (≈ 44 µM)
MIC Enterococcus faecalis (GC 2691) (Enterococcus sp.; [2]): >64 µg/mL
MIC Enterococcus faecalis (GC 3059) (Enterococcus sp.; [3]): >64 µg/mL
MIC Enterococcus faecalis (GC 4552) (Enterococcus sp.): >64 µg/mL
MIC Enterococcus faecalis (GC 4553) (Enterococcus sp.): 64 µg/mL (≈ 44 µM)
MIC Enterococcus faecalis (GC 4554) (Enterococcus sp.): >64 µg/mL
MIC Enterococcus faecalis (GC 6189) (Enterococcus sp.): 64 µg/mL (≈ 44 µM)
MIC Enterococcus faecium (GC 2243) (Enterococcus sp.): 64 µg/mL (≈ 44 µM)
MIC Enterococcus faecium (GC 4556) (Enterococcus sp.): >64 µg/mL
MIC Enterococcus faecium (GC 4557) (Enterococcus sp.): 32 µg/mL (≈ 22 µM)
MIC Enterococcus faecalis (GC 2242) (Enterococcus sp.; [4]): 64 µg/mL (≈ 44 µM)
MIC Enterococcus faecalis (GC 2691) (Enterococcus sp.; [4]): >64 µg/mL
MIC Enterococcus faecalis (GC 3059) (Enterococcus sp.; [4]): >64 µg/mL
MIC Escherichia coli (ATCC 25922) (Escherichia coli): >64 µg/mL
MIC Escherichia coli (GC 4559) (Escherichia coli): >64 µg/mL
MIC Escherichia coli (GC 4560) (Escherichia coli): 64 µg/mL (≈ 44 µM)
MIC Coagulase Negative Staphylococcus (GC 4547) (Staphylococcus sp.): 64 µg/mL (≈ 44 µM)
MIC Coagulase Negative Staphylococcus (GC 4548) (Staphylococcus sp.): 32 µg/mL (≈ 22 µM)
MIC Coagulase Negative Staphylococcus (GC 4549) (Staphylococcus sp.): 32 µg/mL (≈ 22 µM)
MIC Coagulase Negative Staphylococcus (GC 4551) (Staphylococcus sp.): 64 µg/mL (≈ 44 µM)
MIC Coagulase Negative Staphylococcus (GC 6257) (Staphylococcus sp.): 32 µg/mL (≈ 22 µM)
MIC Staphylococcus aureus (ATCC 29213) (Staphylococcus sp.): 64 µg/mL (≈ 44 µM)
MIC Staphylococcus aureus (GC 1131) (Staphylococcus sp.): 64 µg/mL (≈ 44 µM)
MIC Staphylococcus aureus (GC 3051) (Staphylococcus sp.): 64 µg/mL (≈ 44 µM)
MIC Staphylococcus aureus (GC 3053) (Staphylococcus sp.): 64 µg/mL (≈ 44 µM)
MIC Staphylococcus aureus (GC 4541) (Staphylococcus sp.): 64 µg/mL (≈ 44 µM)
MIC Staphylococcus aureus (GC 4542) (Staphylococcus sp.): 64 µg/mL (≈ 44 µM)
MIC Staphylococcus aureus (GC 4544) (Staphylococcus sp.): 64 µg/mL (≈ 44 µM)
MIC Staphylococcus aureus (GC 4545) (Staphylococcus sp.): 64 µg/mL (≈ 44 µM)
MIC Staphylococcus aureus-SMITH (GC 4543) (Staphylococcus sp.): 64 µg/mL (≈ 44 µM)
MIC Streptococcus agalactiae (GC 4564) (Streptococcus sp.; [5]): 32 µg/mL (≈ 22 µM)
MIC Streptococcus pneumoniae (ATCC 6301) (Streptococcus sp.; [6]): 32 µg/mL (≈ 22 µM)
MIC Streptococcus pneumoniae (GC 1894) (Streptococcus sp.; [7]): 8 µg/mL (≈ 5.5 µM)
MIC Streptococcus pneumoniae (GC 4565) (Streptococcus sp.; [8]): 16 µg/mL (≈ 11 µM)
MIC Streptococcus pyogenes (GC 4563) (Streptococcus sp.; [9]): 32 µg/mL (≈ 22 µM)
MIC Streptococcus agalactiae (GC 4564) (Streptococcus sp.; [4]): 32 µg/mL (≈ 22 µM)
MIC Streptococcus pneumoniae (ATCC 6301) (Streptococcus sp.; [4]): 32 µg/mL (≈ 22 µM)
MIC Streptococcus pneumoniae (GC 1894) (Streptococcus sp.; [4]): 8 µg/mL (≈ 5.5 µM)
MIC Streptococcus pneumoniae (GC 4565) (Streptococcus sp.; [4]): 16 µg/mL (≈ 11 µM)
MIC Streptococcus pyogenes (GC 4563) (Streptococcus sp.; [4]): 32 µg/mL (≈ 22 µM)
SMILES: CC(c1ccccc1)C1NC(=O)CNC(=O)C(CO)NC(=O)C(C(O)C2CNC(=N)N2C2OC(CO)C(O)C(O)C2O)NC(=O)C(C(O)C2CNC(=N)N2)NC(=O)C(Cc2ccc(OC3OC(CO)C(OC4OC(COCC=Cc5ccc(N(C)C)cc5)C(O)C(O)C4O)C(O)C3O)cc2)NC1=O (centres unmarked) [Example 243]
MIC Staphylococcus haemolyticus (GC 4546) (Staphylococcus sp.): 64 µg/mL (≈ 44 µM)
